Results published in patent US20250122169A1, “PPARG INVERSE AGONISTS AND USES THEREOF” (Flare Therapeutics Inc., priority 2021, published 2025).

How the values were obtained:
[1] = system: ANGPTL4, a PPARG target gene, in HT1197 (RXRA S427F mutation) cells; assay: Bladder cancer pharmacodynamic assay, HT1197 cell assay (qPCR of PPARG target gene ANGPTL4); assay type: cell-based; conditions: Homo sapiens; for inhibition at 0.1 µM: read-out: % inhibition of ANGPTL4 @ 100 nM, 100 nM compound, 24 hours, relative to DMSO control; for EC50: 24 hours treatment, qPCR
Procedure: Quantitative PCR was performed using an ABI QuantStudio 7 Flex Reaction system. Data were analyzed and reported relative to DMSO control using the comparative Ct method (ΔΔCt).

[2] = target: T1, PPARG/RXRA LBD heterodimer (Homo sapiens, UniProt P37231); assay: PPARγ-NCOR1 recruitment assay (TR-FRET); assay type: biochemical; conditions: for Emax: 3 h, maximal extent, T0070907 defined as 100%, DMSO 0%, read-out: % NCOR recruitment relative to T907; for EC50: TR-FRET, NCOR1 ID2 peptide, 80 nM Rosiglitazone, 3 hours, read-out: PPARG-NCOR recruitment assay EC50
T1 construct: 2 nM WT PPARG LBD (E. coli expressed, His-TEV-Q203-Y477); fused on or other part: N-terminal His tag with TEV site on the PPARG LBD
Procedure: Compound potency (EC50) and maximal extent of NCOR1 recruitment to PPARG were assessed a TR-FRET binding assay measuring association of a biotinylated NCOR1 ID2 peptide (Biotin-[…]-amide) to PPARG/RXRA LBD heterodimer.
T1 sequence (O75376 2251-2273 limits assumed, one chain of several, further chain): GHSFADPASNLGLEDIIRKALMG

[3] = target: T2, PPARG/RXRA LBD heterodimer (Homo sapiens, UniProt P37231); assay: PPARγ-MED1 blockade assay (TR-FRET); assay type: biochemical; conditions: for EC50: TR-FRET, MED1 LxxLL peptide, 80 nM Rosiglitazone, 3 hours; for Emax: maximal extent, GW9662 defined as 100%, DMSO 0%, read-out: % MED1 blockade relative to GW9662
T2 construct: His-TEV-Q203-Y477; Uniprot ID P37231-2; made in house; host or cells: E. coli
T2 sequence (P37231 203-477 isoform P37231-2): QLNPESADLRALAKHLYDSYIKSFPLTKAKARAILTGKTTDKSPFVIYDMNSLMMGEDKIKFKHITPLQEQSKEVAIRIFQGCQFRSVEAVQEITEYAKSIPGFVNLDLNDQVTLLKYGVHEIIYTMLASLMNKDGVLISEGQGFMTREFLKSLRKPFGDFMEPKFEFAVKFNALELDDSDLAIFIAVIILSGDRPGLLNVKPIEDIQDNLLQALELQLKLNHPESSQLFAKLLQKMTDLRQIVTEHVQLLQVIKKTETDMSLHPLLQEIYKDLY
T2 sequence (P19793 228-462 partner limits assumed): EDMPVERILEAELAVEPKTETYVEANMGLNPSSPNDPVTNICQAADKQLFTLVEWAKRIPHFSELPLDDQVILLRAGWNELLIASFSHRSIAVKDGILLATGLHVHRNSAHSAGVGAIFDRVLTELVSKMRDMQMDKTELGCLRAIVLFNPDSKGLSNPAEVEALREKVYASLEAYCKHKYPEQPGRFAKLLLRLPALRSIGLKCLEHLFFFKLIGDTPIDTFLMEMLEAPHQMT
Procedure: Compound potency (IC50) and maximal extent of MED1 repulsion to PPARG were assessed a TR-FRET binding assay measuring association of a biotinylated MED1 LxxLL peptide (Biotin-[…]-amide) to PPARG/RXRA LBD heterodimer.

Compound	inhibition at 0.1 µM [1]	Emax [2]	EC50 [2]	EC50 [3]	Emax [3]	EC50 [1]
CN(C)C(=O)[C@H]1CCCN(c2c(F)cc3[nH]c(-c4cc(C#N)ncc4S(C)(=O)=O)cc(=O)c3c2F)C1 (single isomer, unassigned) [Example 34]	87%	> 100%	< 10 nM	< 10 nM	> 100%	–
N#Cc1ccc(Cl)c(-c2cc(=O)c3cc(F)c(F)cc3[nH]2)n1 [Example 1, 5-chloro-6-(6,7-difluoro-4-oxo-1,4-dihydroquinolin-2-yl)picolinonitrile]	91%	> 100%	10 to 100 nM	10 to 100 nM	> 100%	–
N#Cc1cc(-c2cc(=O)c3c(F)cc(F)cc3[nH]2)c(Cl)cn1 [Example 2, 5-chloro-4-(5,7-difluoro-4-oxo-1,4-dihydroquinolin-2-yl)picolinonitrile]	91%	> 100%	< 10 nM	< 10 nM	> 100%	0.14 nM
N#Cc1ccc(Cl)c(-c2cc(=O)c3c(F)cc(F)cc3[nH]2)n1 [Example 3, 5-chloro-6-(5,7-difluoro-4-oxo-1,4-dihydroquinolin-2-yl)picolinonitrile]	95%	> 100%	< 10 nM	< 10 nM	> 100%	0.09 nM
N#Cc1cc(-c2cc(=O)c3ccc(Cl)cc3[nH]2)c(Cl)cn1 [Example 4, 5-chloro-4-(7-chloro-4-oxo-1,4-dihydroquinolin-2-yl)picolinonitrile]	88%	> 100%	< 10 nM	< 10 nM	> 100%	–
N#Cc1ccc(Cl)c(-c2cc(=O)c3ccccc3[nH]2)n1 [Example 5, 5-chloro-6-(4-oxo-1,4-dihydroquinolin-2-yl)picolinonitrile]	71%	< 100%	10 to 100 nM	10 to 100 nM	> 100%	–
N#Cc1ccc(Cl)c(-c2cc(=O)c3ccc(Cl)cc3[nH]2)n1 [Example 6, 5-chloro-6-(7-chloro-4-oxo-1,4-dihydroquinolin-2-yl)picolinonitrile]	73%	> 100%	< 10 nM	< 10 nM	> 100%	–
COc1ccc(C#N)nc1-c1cc(=O)c2c(F)cc(F)cc2[nH]1 [Example 7, 6-(5,7-difluoro-4-oxo-1,4-dihydroquinolin-2-yl)-5-methoxypicolinonitrile]	23%	> 100%	> 10000 nM	> 10000 nM	> 100%	–
CSc1ccc(C#N)nc1-c1cc(=O)c2c(F)cc(F)cc2[nH]1 [Example 8, 6-(5,7-difluoro-4-oxo-1,4-dihydroquinolin-2-yl)-5-(methylthio)picolinonitrile]	–	> 100%	> 10000 nM	> 10000 nM	> 100%	–
COc1cnc(C#N)cc1-c1cc(=O)c2c(F)cc(F)cc2[nH]1 [Example 9, 4-(5,7-difluoro-4-oxo-1,4-dihydroquinolin-2-yl)-5-methoxypicolinonitrile]	22%	< 100%	100 to 1000 nM	100 to 1000 nM	> 100%	–
CN(C)CCOc1cnc(C#N)cc1-c1cc(=O)c2c(F)cc(F)cc2[nH]1 [Example 11, 4-(5,7-difluoro-4-oxo-1,4-dihydroquinolin-2-yl)-5-(2-(dimethylamino)-ethoxy)-picolinonitrile]	58%	> 100%	1000 to 10000 nM	1000 to 10000 nM	> 100%	–
CCSc1cnc(C#N)cc1-c1cc(=O)c2c(F)cc(F)cc2[nH]1 [Example 12, 4-(5,7-difluoro-4-oxo-1,4-dihydroquinolin-2-yl)-5-(ethylthio)picolinonitrile]	18%	< 100%	> 10000 nM	> 10000 nM	< 100%	–
CN1CCN(c2c(F)cc3[nH]c(-c4nc(C#N)ccc4Cl)cc(=O)c3c2F)CC1 [Example 13, 5-chloro-6-(5,7-difluoro-6-(4-methylpiperazin-1-yl)-4-oxo-1,4-dihydroquinolin-2-yl)picolinonitrile]	78%	> 100%	10 to 100 nM	10 to 100 nM	> 100%	–
CN1CCN(c2cc3c(=O)cc(-c4cc(C#N)ncc4Cl)[nH]c3cc2Cl)CC1 [Example 14, 5-chloro-4-(7-chloro-6-(4-methylpiperazin-1-yl)-4-oxo-1,4-dihydroquinolin-2-yl)picolinonitrile]	88%	> 100%	10 to 100 nM	10 to 100 nM	> 100%	–
CN1CCN(c2c(F)cc3[nH]c(-c4cc(C#N)ncc4Cl)cc(=O)c3c2F)CC1 [Example 15, 5-chloro-4-(5,7-difluoro-6-(4-methylpiperazin-1-yl)-4-oxo-1,4-dihydroquinolin-2-yl)picolinonitrile]	81%	> 100%	10 to 100 nM	10 to 100 nM	> 100%	3.1 nM
CN1CCC(c2c(F)cc3[nH]c(-c4nc(C#N)ccc4Cl)cc(=O)c3c2F)CC1 [Example 16, 5-chloro-6-(5,7-difluoro-6-(1-methylpiperidin-4-yl)-4-oxo-1,4-dihydroquinolin-2-yl)picolinonitrile]	85%	> 100%	10 to 100 nM	10 to 100 nM	> 100%	–
N#Cc1ccc(Cl)c(-c2cc(=O)c3c(F)c(N4CCS(=O)(=O)CC4)c(F)cc3[nH]2)n1 [Example 17, 5-chloro-6-(6-(1,1-dioxidothiomorpholino)-5,7-difluoro-4-oxo-1,4-dihydroquinolin-2-yl)picolinonitrile]	78%	> 100%	10 to 100 nM	10 to 100 nM	> 100%	–
N#Cc1cc(-c2cc(=O)c3c(F)c(N4CCS(=O)(=O)CC4)c(F)cc3[nH]2)c(Cl)cn1 [Example 18, 5-chloro-4-(6-(1,1-dioxidothiomorpholino)-5,7-difluoro-4-oxo-1,4-dihydroquinolin-2-yl)picolinonitrile]	57%	> 100%	10 to 100 nM	10 to 100 nM	> 100%	–
CN(C)C(=O)C1CCN(c2c(F)cc3[nH]c(-c4cc(C#N)ncc4Cl)cc(=O)c3c2F)CC1 [Example 19, 1-(2-(5-chloro-2-cyanopyridin-4-yl)-5,7-difluoro-4-oxo-1,4-dihydroquinolin-6-yl)-N,N-dimethylpiperidine-4-carboxamide]	84%	> 100%	10 to 100 nM	10 to 100 nM	> 100%	–
CN1CCC(c2c(F)cc3[nH]c(-c4cc(C#N)ncc4Cl)cc(=O)c3c2F)CC1 [Example 20, 5-chloro-4-(5,7-difluoro-6-(1-methylpiperidin-4-yl)-4-oxo-1,4-dihydroquinolin-2-yl)picolinonitrile]	80%	> 100%	10 to 100 nM	10 to 100 nM	> 100%	–
CN(C)C(=O)N1CCN(c2c(F)cc3[nH]c(-c4cc(C#N)ncc4Cl)cc(=O)c3c2F)CC1 [Example 21, 4-(2-(5-chloro-2-cyanopyridin-4-yl)-5,7-difluoro-4-oxo-1,4-dihydroquinolin-6-yl)-N,N-dimethylpiperazine-1-carboxamide]	81%	> 100%	< 10 nM	< 10 nM	> 100%	–
CS(=O)(=O)c1cnc(C#N)cc1-c1cc(=O)c2c(F)cc(F)cc2[nH]1 [Example 29, 4-(5,7-difluoro-4-oxo-1,4-dihydroquinolin-2-yl)-5-(methylsulfonyl)picolinonitrile]	90%	–	–	–	–	0.49 nM
